These results are taken from patent US20040097421A1 (priority 2000, published 2004).

Counter-ions that a name gives are not always drawn. Like-named read-outs stand apart in the source and are kept apart here. Some results are limits rather than exact numbers.

Assay [1] has as its system solid fresh human tumour specimens (PHTC). In kind it is cell-based.
Assay [2] concerns panel of ten human tumour cell lines. It counts as cell-based.
The test system of assay [3] is U-1752 (non-small cell lung cancer). Put plainly: cells. The note with it: Homo sapiens, read-out: IC50 (μM), U-1752. It counts as cell-based.
The test system of assay [4] is NCI-H611 (non-small cell lung cancer). Put plainly: cells. It counts as cell-based. The note with it: Homo sapiens, read-out: IC50 (μM), NCI-H611.
Assay [5] relates to U-1568 (non-small cell lung cancer). Put plainly: cells. In kind it is cell-based. The note with it: Homo sapiens, read-out: IC50 (μM), U-1568.
In assay [6] the test system is U1906L (small cell lung cancer). The experiment in a line: cells. Conditions: Homo sapiens, read-out: IC50 (μM), U1906L. It counts as cell-based.
Assay [7] deals with U1285 (small cell lung cancer). The experiment in a line: cells. It counts as cell-based. Conditions: Homo sapiens, read-out: IC50 (μM), U1285.
The subject of assay [8] is U-1906E (small cell lung cancer). The experiment in a line: cells. The note with it: Homo sapiens, read-out: IC50 (μM), U-1906E. It counts as cell-based.
The test system of assay [9] is U1690 (small cell lung cancer). Put plainly: cells. It counts as cell-based. Conditions: Homo sapiens, read-out: IC50 (μM), U1690.
For assay [10], the system named is hematological fresh human tumour specimens (PHTC). In kind it is cell-based.
In assay [11] the test system is CEM/S (leukemia CCRF-CEM). The experiment in a line: cells. The note with it: Homo sapiens, 72 h, read-out: IC50 (μM), CEM/S. In kind it is cell-based.
Assay [12] has as its system 8226S (myeloma RPMI 8226). The experiment in a line: cells. In kind it is cell-based, human. The note with it: read-out: IC50 (μM), 8226S.
Assay [13] relates to fresh human tumour specimens (fourteen hematological, thirteen solid). Put plainly: FMCA, IC50 comparison in 27 fresh human tumour specimens. In kind it is cell-based. The note with it: 27 human tumour samples, 82 to 0.131 μM.
Assay [14] relates to H69AR (doxorubicin resistance subline). In kind it is cell-based, human.
Assay [15] relates to Ovarian carcinoma tumor cell system. Put plainly: Cytotoxic activity in different tumor models, ovarian carcinoma. It counts as cell-based, human. Conditions: Number 8.
Assay [16] deals with Breast cancer tumor cell system. The experiment in a line: Cytotoxic activity in different tumor models, breast cancer. It counts as cell-based, human. The note with it: Number 4.
In assay [17] the test system is NSC Lung cancer tumor cell system. The experiment in a line: Cytotoxic activity in different tumor models, NSC lung cancer. It counts as cell-based, human. The note with it: Number 8.
For assay [18], the system named is Corpus cancer tumor cell system. The experiment in a line: Cytotoxic activity in different tumor models, corpus cancer. Conditions: Number 4. It counts as cell-based, human.
For assay [19], the system named is Adenocarcinoma tumor cell system. Put plainly: Cytotoxic activity in different tumor models, adenocarcinoma. In kind it is cell-based, human. Conditions: Number 5.
The subject of assay [20] is 27 PHTC samples from 9 patients with hematological and 18 patients with solid tumours. The experiment in a line: Circumvention of melphalan resistance, FMCA classification of PHTC samples. It counts as cell-based, human. Conditions: 4 μM.
Assay [21] concerns solid tumour types, cell lines and primary cultures of human tumour cells from patients. Put plainly: Tumour type specific spectrum of antitumour activity, solid tumour types. It counts as cell-based. Conditions: for Activity in the listed diagnoses of Table 5: 4.0 μM; for Activity against solid tumour types (activity = at least 50% reduction in tumour cell survival): cell lines and PHTC.

Assay [22] concerns hematological tumors, primary cultures of human tumor cells from patients (PHTC). It counts as cell-based.
For assay [23], the system named is solid tumors, primary cultures of human tumor cells from patients (PHTC). In kind it is cell-based.
The test system of assay [24] is Prostate cancer tumor cell system. The experiment in a line: Cytotoxic activity in different tumor models, prostate cancer. In kind it is cell-based, human. The note with it: Number 1.
Assay [25] has as its system sarcoma 45. Conditions: rats; cited from earlier work.
The test system of assay [26] is mitochondria from rat liver homogenates and Jensen sarcoma cells. Conditions: cited from earlier work.

Turning to `Nc1ccn([C@@H]2O[C@H](CO)[C@@H](O)[C@@H]2O)c(=O)n1` [AraC], in assay [1], the “Tumor cell survival index %, Solid (n = 22)” value came out at 102%.
As for `N.N.[Cl][Pt][Cl]` [Cisplatin, cisplatin], the “IC50 (μM), MEAN” value in assay [2] is 18.0 µM.
For the molecule `CC(=O)O[C@@]12CO[C@@H]1C[C@H](O)[C@@]1(C)C(=O)[C@H](O)C3=C(C)[C@@H](OC(=O)[C@H](O)[C@@H](NC(=O)OC(C)(C)C)c4ccccc4)C[C@@](O)([C@@H](OC(=O)c4ccccc4)[C@H]21)C3(C)C` [Docetaxel, docetaxel], the “Tumor cell survival index %, Solid (n = 22)” value in assay [1] is listed as 67%. In addition, the IC50 came to 0.46 µM in assay [3]; 1.1 µM in [4]; 5.94 µM in assay [5]; 0.1 µM in [6]; 0.1 µM in [7]; 0.1 µM in assay [8]. Also, the IC50 in [9] was 7.7 µM.
On to `COc1cccc2c1C(=O)c1c(O)c3c(c(O)c1C2=O)C[C@@](O)(C(=O)CO)C[C@@H]3O[C@H]1C[C@H](N)[C@H](O)[C@H](C)O1` [Doxorubicin, doxorubicin], for which, in assay [10], the “Tumor cell survival index %, Hematological (n = 42)” value stood at 29%. The “Tumor cell survival index %, Solid (n = 22)” value in [1] was 97%. Besides, the IC50 in assay [11] was 0.18 µM; in [12] (Homo sapiens, RPMI-8226, 72 h), 0.13 µM; in [3], 0.42 µM; in assay [4], not below 183 µM; in assay [5], not below 183 µM; in assay [6], 0.92 µM. The IC50 in assay [7] stood at 0.52 µM; in [8], 0.44 µM; in [9], 2.21 µM. Moreover, the “IC50 (μM), MEAN” value in [2] stood at 3.51 µM.
Take `COc1cc([C@@H]2c3cc4c(cc3[C@@H](O[C@@H]3O[C@@H]5CO[C@@H](C)O[C@H]5[C@H](O)[C@H]3O)[C@H]3COC(=O)[C@H]23)OCO4)cc(OC)c1O` [Etoposide, etoposide]: the “Tumor cell survival index %, Hematological (n = 42)” value in assay [10] came to 47%. In addition, the “Tumor cell survival index %, Solid (n = 22)” value in assay [1] came out at 81%.
For `CCOC(=O)[C@H](Cc1ccc(F)cc1)NC(=O)[C@@H](N)Cc1ccc(N(CCCl)CCCl)cc1.Cl` [Example J1, L-Melphalanyl-L-p-fluorophenylalanine ethyl ester hydrochloride], the “Comparison of IC50s (FIG. 2)” value in assay [13] was “in all cases was more active than P2”. Further, the IC50 in [14] is 0.9 µM. For the same molecule, the “Median response at 4.0 μM >50% reduction in tumor cell survival” value (from here on “Median response at 4.0 μM >50% reduction”) in [15] is “Yes”; in assay [16] it was “Yes”; in assay [17] it was “Yes”; in assay [18], “No”; in [19] it was “Yes”. Besides, the “Number of samples classified EDR (extreme drug resistance)” value (shortened to “Number of samples classified EDR”) in [20] worked out at 1. The “Number of samples classified IDR (intermediate drug resistance)” value (from here on “Number of samples classified IDR”) in [20] is listed as 3. For the same molecule, the “Samples classified EDR (%)” value in assay [20] is reported as 6%. Besides, the “Activity in the listed diagnoses of Table 5” value (shortened to “Activity … of Table 5”) in assay [21] is “active in most of these diagnoses”. In [21], the “Activity against solid tumour types (activity = at least 50% reduction in tumour cell survival)” value was “showed activity against several types of solid tumours”.
For the molecule `CCOC(=O)[C@H](Cc1ccc(F)cc1)NC(=O)[C@H](Cc1ccc(N(CCCl)CCCl)cc1)NC(=O)[C@@H]1CCCN1.Cl` [Example J3, L-Prolinyl-L-melphalanyl-L-p-fluorophenylalanine ethyl ester hydrochloride], the “Activity against hematological PHTC samples compared to melphalan and sarcolysine” value in [22] is “more active”. Moreover, in [22], the “Tumor cell survival index (%), Hematological tumors n = 7-11” value was determined as 7%. Moreover, the “Activity against solid tumor samples compared to melphalan, sarcolysine and P2” value in [23] is “more active”. The “Median response at 4.0 μM >50% reduction” value in [15], in [16], in assay [17], in [24], in [18] and in assay [19] was “Yes” in each case. In addition, in assay [20], the “Number of samples classified EDR” value was 0 (0%). Further, in assay [20], the “Number of samples classified IDR” value is on record as 4. In addition, the “Samples classified EDR (%)” value in assay [20] is reported as 0 (0%). The “Activity … of Table 5” value in assay [21] is “active”. The “Activity against solid tumour types (activity = at least 50% reduction in tumour cell survival)” value in assay [21] is “showed activity against several types of solid tumours”.
Consider `CCOC(=O)[C@H](Cc1ccccc1)NC(=O)[C@@H](N)Cc1ccc(N(CCCl)CCCl)cc1.Cl` [JV22, L-Melphalanyl-L-phenylalanine ethyl ester hydrochloride], for which the “IC50 (μM), MEAN” value in [2] was 0.48 µM.
With `CCOC(=O)[C@H](Cc1ccc(O)cc1)NC(=O)[C@@H](N)Cc1ccc(N(CCCl)CCCl)cc1.Cl` [JV24, L-Melphalanyl-L-tyrosine ethyl ester hydrochloride], the “IC50 (μM), MEAN” value in assay [2] worked out at 1.05 µM.
In the case of `CCOC(=O)[C@H](Cc1ccc(N(CCCl)CCCl)cc1)NC(=O)[C@@H](N)Cc1ccc(N(CCCl)CCCl)cc1` [JV27, L-Melphalanyl-L-melphalan ethyl ester hydrochloride], the IC50 in assay [12] came out at 1.01 µM.
Take `CC(C)OC(=O)[C@H](Cc1ccc(F)cc1)NC(=O)[C@@H](N)Cc1ccc(N(CCCl)CCCl)cc1.Cl` [JV28, L-Melphalanyl-L-p-fluorophenylalanine isopropyl ester hydrochloride]: the “Activity against hematological PHTC samples compared to melphalan and sarcolysine” value in assay [22] is “more active”. In [23], the “Activity against solid tumor samples compared to melphalan, sarcolysine and P2” value is on record as “more active”. Further, the “Median response at 4.0 μM >50% reduction” value in [15], in assay [16], in assay [17], in [24] and in [19] was “Yes” throughout. Also, in assay [20], the “Number of samples classified EDR” value is 1. Further, the “Number of samples classified IDR” value in [20] came out at 2. Besides, the “Samples classified EDR (%)” value in [20] came out at 6%. In assay [21], the “Activity … of Table 5” value was “active in most of these diagnoses”. In addition, in assay [21], the “Activity against solid tumour types (activity = at least 50% reduction in tumour cell survival)” value was “showed activity against several types of solid tumours”.
Turning to `CC[C@]1(O)C[C@H]2CN(CCc3c([nH]c4ccccc34)[C@@](C(=O)OC)(c3cc4c(cc3OC)N(C=O)[C@H]3[C@@](O)(C(=O)OC)[C@H](OC(C)=O)[C@]5(CC)C=CCN6CC[C@]43[C@@H]65)C2)C1` [Vincristine, vincristine], in assay [10], the “Tumor cell survival index %, Hematological (n = 42)” value was determined as 39%. Further, in assay [1], the “Tumor cell survival index %, Solid (n = 22)” value is 93%. In addition, the IC50 worked out at 0.08 µM in assay [11] and 0.01 µM in assay [12] (Homo sapiens, RPMI-8226, 72 h). Also, the “IC50 (μM), MEAN” value in assay [2] was determined as 30.1 µM.
As for `CCC1=C[C@@H]2CN(C1)Cc1c([nH]c3ccccc13)[C@@](C(=O)OC)(c1cc3c(cc1OC)N(C)[C@H]1[C@@](O)(C(=O)OC)[C@H](OC(C)=O)[C@]4(CC)C=CCN5CC[C@]31[C@@H]54)C2` [Vinorelbine, vinorelbine], in assay [10], the “Tumor cell survival index %, Hematological (n = 42)” value was found to be 50%. Moreover, the “Tumor cell survival index %, Solid (n = 22)” value in assay [1] is reported as 73%.
With `CCOC(=O)[C@H](CC(C)C)NC(=O)[C@H](Cc1ccc(N(CCCl)CCCl)cc1)NC(C)=O` [asaley], the “Sarcoma 45 growth” value in assay [25] is “inhibited”.
As to `CCOC(=O)[C@H](Cc1ccc(O)cc1)NC(=O)[C@H](Cc1ccc(N(CCCl)CCCl)cc1)NC(C)=O` [astyron, N-acetyl-L-melphalanyl-L-tyrosine ethyl ester], the “Sarcoma 45 growth” value in assay [25] was “inhibited”.
`CC(C)[C@H](NC(=O)[C@@H](N)Cc1ccc(N(CCCl)CCCl)cc1)C(=O)O` [salin, L-melphalanyl-L-valine]: the “Oxidative phosphorylation in mitochondria” value in [26] is listed as “disrupted”.
